# In the supplement of paper PMC3974653:
# Structures can show the parent of a compound that is named as a salt.
# Tested on: MTT (mouse pheochromocytoma)
# Experiment: IC50 of cell viability (ATP content)
# Details: (24 or 48 h)
# Summary of the method: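 MTT mouse pheochromocytoma cells, cultured overnight at 37°C, 5% CO2 in DMEM with 5% FBS and 1% horse serum, were exposed in white 1536-well plates to library compounds in DMSO at final 0.5 nM to 46 µM (8 concentrations) for 24 or 48 hrs. CellTiter-Glo luminescence was normalised to positive-control (100%) and DMSO (0%) wells. A four-parameter logistic fit gave the IC50.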
row,SMILES,IC50 of cell viability
1,COC(C)=O [Methyl acetate],> 46 µM
2,Cc1c(C)c2c(c(C)c1O)CC[C@@](C)(CCC[C@H](C)CCC[C@H](C)CCCC(C)C)O2 [Alpha-Vitamin E],> 46 µM
3,C[C@@H](O)[C@@H]1NC(=O)[C@H](CCCCN)NC(=O)[C@@H](Cc2c[nH]c3ccccc23)NC(=O)[C@H](Cc2ccccc2)NC(=O)[C@@H](NC(=O)[C@H](N)Cc2ccccc2)CSSC[C@@H](C(=O)N[C@H](CO)[C@@H](C)O)NC1=O [Octreotide],> 46 µM
4,FC(F)(F)C(F)(F)C(F)(F)C(F)(F)C(F)(F)C(F)(F)F [PERFLEXANE],> 46 µM
5,CC(C)(C)NC[C@@H](O)COc1ccccc1C1CCCC1 [Penbutolol sulfate],> 46 µM
6,CCC(=O)Nc1ccc(O)cc1 [Parapropamol],> 46 µM
7,CCN(CC)CCOc1ccccc1C(=O)CCc1ccccc1 [ETAFENONE HYDROCHLORIDE],> 46 µM
8,O=C(O)COc1ccccc1/C=N/NC(=O)c1ccncc1 [Aconiazida],> 46 µM
9,Nc1ccc(O)c(C(=O)O)c1 [Mesalamine],> 46 µM
10,CC[C@@]1(O)CC2CN(CCC3=C([NH]C4=CC=CC=C34)[C@](C2)(C(=O)OC)C5=C(OC)C=C6N(C)C7[C@](O)([C@H](O)[C@]8(CC)\C=C/CN9CC[C@@]7([C@H]89)C6=C5)C(N)=O)C1 (stereo not given in full) [Vindesine Sulfate Salt],> 46 µM
11,CC1=CC=C(C=C1)N(C\C2=N\CCN2)C3=CC=CC(=C3)O [PHENTOLAMINE],> 46 µM
12,CO/N=C(/C(=O)N[C@@H]1C(=O)N2C(C(=O)[O-])=CCS[C@H]12)c1csc(N)n1 [CEFTIZOXIME SODIUM],> 46 µM
13,Cc1ccc(NC(=O)c2ccc(CN3CCN(C)CC3)cc2)cc1Nc1nccc(-c2cccnc2)n1 [IMATINIB MESYLATE],> 46 µM
14,O=P(O)(O)OP(=O)(O)OP(=O)(O)O.[NaH] [SODIUM TRIPOLYPHOSPHATE],> 46 µM
15,CC[C@@H](CO)NC(=O)[C@H]\1CN(C)[C@@H]2CC3=C[N](C)C4=CC=CC(=C34)/C2=C1 [METHYSERGIDE],> 46 µM
16,OCC(O)C(O)C(O)CO (stereo not given) [ARABITOL(D)],> 46 µM
17,CCCC(CCC)C(N)=O [Valpromide],> 46 µM
18,CCN(CC)CCNC(=O)c1cc(Cl)c(N)cc1OC [METOCLOPRAMIDE],> 46 µM
19,CCN(CC)C(=O)/C(Cl)=C(\C)OP(=O)(OC)OC [PHOSPHAMIDON],> 46 µM
20,COC(=O)[C@@H]1[C@H]2C[C@H]3c4[nH]c5cc(OC)ccc5c4CCN3C[C@@H]2C[C@@H](OC(=O)/C=C\c2cc(OC)c(OC)c(OC)c2)[C@@H]1OC [Rescinnamin],> 46 µM
21,COc1ccccc1N1CCN(CCCCNC(=O)c2ccc(-c3ccc(C(C)=O)cc3)cc2)CC1,> 46 µM
22,CCCCCCCCCC(=O)O[C@H]1CC[C@H]2[C@@H]3CCC4=CC(=O)CC[C@@H]4[C@H]3CC[C@]12C [Nandrolone decanoate],> 46 µM
23,Cc1cccc(C)c1N(CCCc1cccnc1)C(=O)[C@@H](C)N [Ro 22-9194],> 46 µM

row,SMILES,IC50 of cell viability
1,OC(Cn1cncn1)(Cn1cncn1)c1ccc(F)cc1F [FLUCONAZOLE],> 46 µM
2,COc1cc(/C=C/C(=O)N2CCN(CC(=O)N3CCCC3)CC2)cc(OC)c1OC [CINEPAZIDE MALEATE],> 46 µM
3,OC(=O)CC/1=N/N(CC2=CC=C(Br)C=C2F)C(=O)C3=CC=CC=C13 [Statil],> 46 µM
4,CC[C@@H](C)C(N)C(=O)O (stereo not given in full) [ISOLEUCINE],> 46 µM
5,CCCCCC[C@@H](CCC)C(=O)O [(R)-2-Propyloctanoic acid (Arundic Acid)],> 46 µM
6,CCOC(=O)C/1=C/C(OC(CC)CC)C(NC(C)=O)C(N)C1.OC(C(O)C(O)=O)C(O)=O (stereo not given) [OSELTAMIVIR TARTRATE],> 46 µM
7,CCC(=O)OCC(=O)[C@@]1(OC(=O)CC)[C@H](C)C[C@@H]2[C@@H]3[C@H](Cl)C\C4=C\C(=O)\C=C/[C@@]4(C)[C@H]3[C@@H](O)C[C@@]12C [Alclometasone dipropionate],> 46 µM
8,O=C(O)COC(=O)Cc1ccccc1Nc1c(Cl)cccc1Cl [Aceclofenac],> 46 µM
9,Clc1ccccc1-c1nc(-c2ccncc2)no1 [PIFEXOLUM],> 46 µM
10,O=C(O)c1cccnc1 [NIACIN],> 46 µM
11,O=C1CC[C@@H](C(=O)N2CSC[C@H]2C(=O)O)N1 [Pidotimod],> 46 µM
12,CC(=O)N(O)CCCCCNC(=O)CCC(=O)N(O)CCCCCNC(=O)CCC(=O)N(O)CCCCCN.C[S+](=O)([O-])O [Deferoxamine mesylate],> 46 µM
13,CC(=O)OC1CCC2C3CCc4cc(O)ccc4C3CCC12C (stereo not given) [ESTRADIOL ACETATE],> 46 µM
14,Cc1nnc(C(C)C)n1C1C[C@H]2CC[C@@H](C1)N2CC[C@H](NC(=O)C1CCC(F)(F)CC1)c1ccccc1 (stereo not given in full) [Maraviroc],> 46 µM
15,Nc1ccncc1 [4-AMINOPYRIDINE],> 46 µM
16,CC(C)NCC(O)c1ccc(O)c(O)c1 (stereo not given) [ISOPROTERENOL],> 46 µM
17,CN1CC(=O)NC1=N [CREATININE],> 46 µM
18,CN[C@H](CC(C)C)C(=O)N[C@H]1C(=O)N[C@@H](CC(N)=O)C(=O)N[C@H]2C(=O)N[C@H]3C(=O)N[C@H](C(=O)N[C@H](C(=O)O)c4cc(O)cc(O)c4-c4cc3ccc4O)[C@H](O)c3ccc(c(Cl)c3)Oc3cc2cc(c3O[C@@H]2OC(CO)[C@@H](O)[C@H](O)[C@H]2O[C@H]2C[C@](C)(N)[C@H](O)[C@H](C)O2)Oc2ccc(cc2Cl)[C@H]1O (stereo not given in full) [VANCOMYCIN HYDROCHLORIDE],> 46 µM
19,Oc1ccc(C2CNCCc3c2cc(O)c(O)c3Cl)cc1 (stereo not given) [FENOLDOPAM],> 46 µM
20,CCC[C@@H]1C(=O)N2N(C1=O)\C(=N/C3=C2C=C(C)C=C3)N(C)C [Azapropazone],> 46 µM
21,CC[C@@]12CCCN3CCc4c(n(c5ccccc45)[C@](O)(C(=O)OC)C1)C32 (stereo not given in full) [VINCAMINE],> 46 µM
22,Cc1cc(O)c2c(O)c3c(O)cccc3cc2c1 [Chrysarobin],> 46 µM
